GI50 and TGI data for 14 compounds are collected here from PubChem BioAssay (NCI).

Common to all, as to experiment: inhibition of tumour cell growth, NCI panel, 48 h
Experiment [1] concerns 786-0 renal.
Experiment [2] has as its system SF-295 CNS.
Experiment [3] deals with NCI-H460 lung.
In experiment [4] the test system is OVCAR-8 ovarian.
Experiment [5] has as its system SN12C renal.
Experiment [6] concerns HT29 colon.
The test system of experiment [7] is HOP-92 NSCLC.
The subject of experiment [8] is OVCAR-3 ovarian.
Experiment [9] has as its system HL-60(TB) leukemia.
Experiment [10] concerns SR leukemia.

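Compound exposure: 48 hours, 5 concentrations, 96-well plates. The concentration for 50% growth inhibition is given as GI50. The concentration for full growth arrest is given as TGI.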

On to `CCC[CH2][Sn]1([CH2]CCC)[O]C(=O)CN=Cc2c(ccc3ccccc23)[O]1`, for which the GI50 in experiment [1] is 0.487 µM; in experiment [2] it was 0.794 µM; in [3], 1.36 µM; in [4], above 100 µM; in experiment [5], 0.374 µM; in experiment [6], 1.08 µM. The GI50 in experiment [7] is 0.171 µM; in experiment [8], 0.706 µM. In addition, the TGI in experiment [1] is 1.81 µM; in experiment [2], 2.08 µM; in experiment [3], 2.75 µM; in [4], above 100 µM; in experiment [5] it was 1.39 µM; in [6], 2.36 µM. Further, the TGI was found to be 0.606 µM in experiment [7] and 1.95 µM in experiment [8].

On to `C[C@@H]1OC(=O)N2CCCC(=C3SCCCS3)C12` (stereo partly drawn), for which the TGI in experiment [1], in [2], in [3], in experiment [4], in experiment [5] and in experiment [6] was above 100 µM each time. Also, the TGI in experiment [7] is 84.9 µM; in [8], above 100 µM.

As to `CC(C)(C)c1cc(CCC(=O)Nc2ccc(Cl)cc2)nc(NC#N)n1`, the TGI in experiment [9], in [1], in experiment [2], in experiment [3], in [4] and in [6] was above 100 µM in each case. Moreover, the TGI in [7] and in experiment [8] was above 100 µM in each case.

With `Nc1c(-c2ccc(Cl)cc2)[n+]([O-])c2ccccc2[n+]1[O-]`, the TGI in experiment [9], in experiment [1], in [2], in experiment [3], in experiment [4] and in experiment [5] was above 100 µM in each case. In addition, the TGI in [6], in [7] and in experiment [8] was above 100 µM each time.

With `CC(C)(CO)N1CCN(C(=S)Nc2ccccc2)CC1`, the TGI in [1], in experiment [2], in experiment [3], in experiment [4], in experiment [5] and in experiment [6] was above 100 µM in each case. In addition, the TGI in [7] and in experiment [8] was above 100 µM each time.

Consider `CCN(CC)C(c1ccc(N(C)C)cc1)C(c1ccc(N(C)C)cc1)N(CC)CC` (stereo not drawn), for which the TGI in experiment [9] is 38.3 µM; in experiment [1], above 73 µM; in [2] it was above 73 µM; in experiment [3], above 73 µM; in experiment [4], above 73 µM; in [5] it was above 73 µM. In addition, the TGI is above 73 µM in [6], 45.7 µM in [7] and above 73 µM in [8].

As to `C/C(O)=C(\N=O)C(=O)Nc1ccc(Cl)cc1Cl`, the TGI in [9], in experiment [1], in [2], in experiment [3], in experiment [4] and in experiment [5] was above 100 µM in each case. Also, the TGI in experiment [6], in [7] and in [8] was above 100 µM each time.

Take `CCOC1Oc2ccc(C)cc2C(=O)/C1=C\Nc1ccc(C(N)=O)cc1` (stereo not drawn): the GI50 in [1] was 16.3 µM; in [2], 18.1 µM; in experiment [3], 33.3 µM; in experiment [4], 17.7 µM; in experiment [5], 17.6 µM; in experiment [6], 37.5 µM. The GI50 in [7] was 79.9 µM; in [8], 18.8 µM. Moreover, the TGI is 30.4 µM in experiment [1]; 45.9 µM in [2]; above 100 µM in experiment [3]; 40.3 µM in experiment [4]; 38.8 µM in experiment [5]; above 100 µM in [6]. In addition, the TGI in experiment [7] was above 100 µM; in experiment [8], 46.8 µM.

Consider `CCc1ccccc1NC(=O)C1=C(C)NC(C)=C(C(=O)Nc2ccccc2CC)C1c1ccc2c(c1)OCO2`, for which the TGI in [9] was 47.8 µM; in experiment [1] it was above 100 µM; in experiment [2] it was above 100 µM; in experiment [3], above 100 µM; in [4], above 100 µM; in [5], above 100 µM. For the same compound, the TGI in [6] was above 100 µM; in [7], 60.1 µM; in [8], 84 µM.

For `CNC(=O)C1CCc2nnc(-c3ccccc3)n21` (stereo not drawn), the TGI in [9], in [1], in experiment [3], in experiment [5], in experiment [10] and in [8] was above 100 µM each time.

In the case of `O=C(CCc1cc(-c2ccccc2)nc(=S)[nH]1)N(Cc1ccccc1)Cc1ccccc1`, the TGI in experiment [9], in experiment [1], in experiment [2], in experiment [3], in [4] and in experiment [5] was above 100 µM throughout. Besides, the TGI in experiment [6], in experiment [7] and in [8] was above 100 µM each time.

In the case of `O=C1CCC(N2C(=O)c3ccccc3C2=O)C(=O)N1CO` (stereo not drawn), the GI50 is 32.2 µM in experiment [9]; above 100 µM in experiment [1]; above 100 µM in experiment [2]; above 100 µM in experiment [3]; above 100 µM in [4]; 73.7 µM in experiment [5]. Moreover, the GI50 in experiment [6] is 42.1 µM; in experiment [7], 25 µM; in [8], 67.4 µM. Besides, the TGI in experiment [9] is 89.5 µM; in [1] it was above 100 µM; in experiment [2], above 100 µM; in [3], above 100 µM; in experiment [4], above 100 µM; in experiment [5] it was above 100 µM. The TGI in experiment [6], in experiment [7] and in experiment [8] was above 100 µM throughout.

Turning to `COc1ccc2nc3c(C(=O)NCCN(C)C)cccc3nc2c1`, the TGI in experiment [9] was above 100 µM; in experiment [1] it was above 100 µM; in [2], 39.1 µM; in experiment [3], above 1 µM; in [4] it was above 100 µM; in [5], 22.5 µM. Further, the TGI is 28.8 µM in experiment [6], 24 µM in [7] and 59.9 µM in [8].

On to `O=C(CC1(O)C(=O)Nc2c(Cl)ccc(Cl)c21)c1ccc(F)cc1` (stereo not drawn), for which the TGI in experiment [9] was 58.2 µM; in [1], above 100 µM; in experiment [2], above 100 µM; in [3], above 100 µM; in [4], above 100 µM; in experiment [5], above 100 µM. Moreover, the figures for the TGI in experiment [6], in experiment [7] and in experiment [8] were above 100 µM, 82.8 µM and above 100 µM, respectively.
